Experimental data: US10479784B2, “Substituted pyrazin-2-amines as inhibitors of ATR kinase” (Vertex Pharmaceuticals Incorporated, priority 2008, dated 2019)

Biological target: full-length ATR (Homo sapiens (Human), UniProt Q13535)
Assay: ATR Inhibition Assay (radioactive-phosphate incorporation)
Assay type: biochemical
Settings: read-out: ATR Ki
Protocol: Compounds were screened for their ability to inhibit ATR kinase using a radioactive-phosphate incorporation assay. Assays were carried out in a mixture of 50 mM Tris/HCl (pH 7.5), 10 mM MgCl2 and 1 mM DTT. Final substrate concentrations were […] [γ-33P]ATP (3mCi 33P ATP/mmol ATP, Perkin Elmer) and 800 μM target peptide ([…]).
Assays were carried out at 25° C. in the presence of 5 nM full-length ATR. An assay stock buffer solution was prepared containing all of the reagents listed above, with the exception of ATP and the test compound of interest. […] The plate was pre-incubated for 10 minutes at 25° C. and the reaction initiated by addition of 15 μL [γ-33P]ATP (final concentration 10 μM).
The reaction was stopped after […] by the addition of 30 μL 0.1M phosphoric acid containing 2 mM ATP. A multiscreen phosphocellulose filter 96-well plate (Millipore, Cat no. MAPHN0B50) was pretreated with 100 μL 0.2M phosphoric acid prior to the addition of 45 μL of the stopped assay mixture. […] After drying, 100 μL Optiphase ‘SuperMix’ liquid scintillation cocktail (Perkin Elmer) was added to the well prior to scintillation counting (1450 Microbeta Liquid Scintillation Counter, Wallac).
After removing mean background values for all of the data points, Ki(app) data were calculated from non-linear regression analysis of the initial rate data using the Prism software package (GraphPad Prism version 3.0cx for Macintosh, GraphPad Software, San Diego Calif., USA).

Chain of full-length ATR (Q13535 whole entry): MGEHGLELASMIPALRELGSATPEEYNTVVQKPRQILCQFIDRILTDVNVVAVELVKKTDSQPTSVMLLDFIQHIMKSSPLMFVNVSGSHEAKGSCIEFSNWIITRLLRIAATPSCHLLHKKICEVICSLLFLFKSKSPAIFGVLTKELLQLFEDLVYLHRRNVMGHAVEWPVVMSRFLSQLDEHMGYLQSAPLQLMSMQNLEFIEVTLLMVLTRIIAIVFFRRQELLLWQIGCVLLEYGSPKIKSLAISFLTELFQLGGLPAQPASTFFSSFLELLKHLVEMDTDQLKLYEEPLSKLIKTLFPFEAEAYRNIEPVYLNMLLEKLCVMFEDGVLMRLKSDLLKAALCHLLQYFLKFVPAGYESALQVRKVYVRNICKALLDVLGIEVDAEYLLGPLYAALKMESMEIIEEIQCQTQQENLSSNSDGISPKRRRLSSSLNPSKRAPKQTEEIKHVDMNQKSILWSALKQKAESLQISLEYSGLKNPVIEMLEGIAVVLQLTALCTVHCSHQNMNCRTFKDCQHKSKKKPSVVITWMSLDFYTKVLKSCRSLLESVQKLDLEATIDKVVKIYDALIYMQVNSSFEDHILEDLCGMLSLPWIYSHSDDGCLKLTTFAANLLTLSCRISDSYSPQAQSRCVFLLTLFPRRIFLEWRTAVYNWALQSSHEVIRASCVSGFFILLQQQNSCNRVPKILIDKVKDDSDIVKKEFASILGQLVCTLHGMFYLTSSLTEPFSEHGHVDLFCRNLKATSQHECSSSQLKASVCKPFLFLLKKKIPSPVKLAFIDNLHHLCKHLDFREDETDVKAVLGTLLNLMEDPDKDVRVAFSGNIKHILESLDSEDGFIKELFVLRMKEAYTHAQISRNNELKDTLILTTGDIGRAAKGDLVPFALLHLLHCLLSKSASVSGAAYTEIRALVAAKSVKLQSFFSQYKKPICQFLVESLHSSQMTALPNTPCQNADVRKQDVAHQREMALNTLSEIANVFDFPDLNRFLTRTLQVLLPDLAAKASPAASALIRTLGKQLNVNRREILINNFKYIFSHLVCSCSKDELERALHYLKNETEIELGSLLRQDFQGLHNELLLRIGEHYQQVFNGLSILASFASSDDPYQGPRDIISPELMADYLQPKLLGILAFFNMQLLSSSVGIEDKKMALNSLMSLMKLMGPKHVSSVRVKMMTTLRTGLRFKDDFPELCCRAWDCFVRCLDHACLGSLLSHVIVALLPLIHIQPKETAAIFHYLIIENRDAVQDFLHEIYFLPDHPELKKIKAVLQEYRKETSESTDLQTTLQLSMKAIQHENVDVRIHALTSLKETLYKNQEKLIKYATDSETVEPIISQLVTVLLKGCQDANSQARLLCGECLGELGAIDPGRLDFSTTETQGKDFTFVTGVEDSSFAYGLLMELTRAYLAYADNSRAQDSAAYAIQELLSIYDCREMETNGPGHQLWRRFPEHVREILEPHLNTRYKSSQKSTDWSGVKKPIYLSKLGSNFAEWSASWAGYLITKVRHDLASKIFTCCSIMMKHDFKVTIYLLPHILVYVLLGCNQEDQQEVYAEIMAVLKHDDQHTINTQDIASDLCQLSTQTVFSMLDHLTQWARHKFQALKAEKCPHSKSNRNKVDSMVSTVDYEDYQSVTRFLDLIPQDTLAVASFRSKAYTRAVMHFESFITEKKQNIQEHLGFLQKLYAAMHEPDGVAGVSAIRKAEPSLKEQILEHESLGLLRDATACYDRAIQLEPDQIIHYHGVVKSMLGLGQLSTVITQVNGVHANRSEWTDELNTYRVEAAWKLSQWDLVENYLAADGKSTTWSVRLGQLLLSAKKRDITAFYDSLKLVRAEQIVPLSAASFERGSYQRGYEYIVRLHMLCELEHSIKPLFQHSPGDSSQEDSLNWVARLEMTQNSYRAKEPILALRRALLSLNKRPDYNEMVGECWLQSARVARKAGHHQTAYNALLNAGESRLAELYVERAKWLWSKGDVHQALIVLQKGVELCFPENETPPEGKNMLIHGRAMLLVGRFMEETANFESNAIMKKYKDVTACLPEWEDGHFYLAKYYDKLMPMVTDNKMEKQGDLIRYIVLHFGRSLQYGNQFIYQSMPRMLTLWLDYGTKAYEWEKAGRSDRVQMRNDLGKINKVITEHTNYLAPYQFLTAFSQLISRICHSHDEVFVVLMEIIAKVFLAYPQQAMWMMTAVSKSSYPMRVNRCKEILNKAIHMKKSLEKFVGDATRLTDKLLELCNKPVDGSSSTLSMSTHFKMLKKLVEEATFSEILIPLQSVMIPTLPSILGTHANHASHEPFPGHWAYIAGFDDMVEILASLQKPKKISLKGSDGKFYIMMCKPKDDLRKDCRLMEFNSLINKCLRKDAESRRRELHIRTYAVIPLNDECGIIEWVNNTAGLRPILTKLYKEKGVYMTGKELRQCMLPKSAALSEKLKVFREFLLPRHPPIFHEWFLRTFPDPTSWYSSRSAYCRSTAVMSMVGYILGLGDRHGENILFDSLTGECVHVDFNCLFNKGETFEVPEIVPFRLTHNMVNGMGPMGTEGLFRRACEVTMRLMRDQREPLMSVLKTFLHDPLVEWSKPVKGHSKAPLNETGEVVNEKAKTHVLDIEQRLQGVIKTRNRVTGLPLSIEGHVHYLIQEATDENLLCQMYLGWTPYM

Compound	Ki
Cc1ccc2nc(-c3nc(-c4ccc(C(=O)N5CCCN(C)CC5)cc4)cnc3N)[nH]c2c1 [Compound I-151, (4-(5-amino-6-(6-methyl-1H-benzo[d]imidazol-2-yl)pyrazin-2-yl)phenyl)(4-methyl-1,4-diazepan-1-yl)methanone]	10 to 100 nM
CN(C)C(=O)c1ccc(-c2cnc(N)c(-c3nnc(-c4ccncc4)o3)n2)cc1 [IA-67]	10 to 100 nM
COc1ccc(OC)c(NC(=O)c2nc(-c3cccnc3)cnc2N)c1 [Compound I-107, 3-amino-N-(2,5-dimethoxyphenyl)-6-(pyridin-3-yl)pyrazine-2-carboxamide]	10 to 100 nM
CN(C)C1CCN(C(=O)c2ccc(-c3cnc(N)c(-c4nnc(-c5ccccc5)o4)n3)cc2F)CC1 [IA-4]	≤ 10 nM
CC(C)c1ccccc1-c1cnc(N)c(-c2nnc(-c3ccccc3)o2)n1 [IA-56]	100 to 5000 nM
CN(C)C(=O)c1ccc(-c2cnc(N)c(-c3nnc(-c4cccc(F)c4)o3)n2)cc1 [IA-40, 4-(5-amino-6-(5-(3-fluorophenyl)-1,3,4-oxadiazol-2-yl)pyrazin-2-yl)-N,N-dimethylbenzamide]	10 to 100 nM
CCC1CN(C(=O)c2ccc(-c3cnc(N)c(-c4nnc(-c5ccccc5)o4)n3)cc2)CCN1 (stereo not drawn) [IA-18]	≤ 10 nM
CN(C)C1CCN(C(=O)c2ccc(-c3cnc(N)c(C(=O)Nc4ccccc4)n3)cc2)CC1 [Compound I-80, 3-amino-6-(4-(4-(dimethylamino)piperidine-1-carbonyl)phenyl)-N-phenylpyrazine-2-carboxamide]	10 to 100 nM
Cc1ccc2nc(-c3nc(-c4ccc(C(=O)N5CCNCC5)cc4)cnc3N)[nH]c2c1 [Compound I-149, (4-(5-amino-6-(6-methyl-1H-benzo[d]imidazol-2-yl)pyrazin-2-yl)phenyl)(piperazin-1-yl)methanone]	10 to 100 nM
Nc1ncc(-c2cc(F)c(C(=O)N3CCCNCC3)c(F)c2)nc1-c1nnc(-c2ccccc2)o1 [IA-38]	10 to 100 nM
CN(C)C(=O)c1ccc(-c2cnc(N)c(-c3nnc(-c4ccc(F)cc4)o3)n2)cc1 [IA-36]	10 to 100 nM
COc1ccc(NC(=O)c2nc(-c3cccnc3)cnc2N)cc1 [Compound I-84, 3-amino-N-(4-methoxyphenyl)-6-(pyridin-3-yl)pyrazine-2-carboxamide]	100 to 5000 nM
Nc1ncc(-c2ccc(C(=O)N3CCCNCC3)cc2)nc1-c1nnc(-c2ccccc2)s1 [IA-68, (4-(5-amino-6-(5-phenyl-1,3,4-thiadiazol-2-yl)pyrazin-2-yl)phenyl)(1,4-diazepan-1-yl)methanone]	≤ 10 nM
COCCN(C)C(=O)c1ccc(-c2cnc(N)c(-c3nnc(-c4ccccc4)o3)n2)cc1 [IA-14]	≤ 10 nM
Nc1ncc(-c2cccc(C(=O)O)c2)nc1C(=O)Nc1ccccc1 [Compound I-8, 3-(5-amino-6-(phenylcarbamoyl)pyrazin-2-yl)benzoic acid]	100 to 5000 nM
Nc1ncc(-c2ccc(C(=O)N3CCCNCC3)cc2C(F)(F)F)nc1-c1nnc(-c2ccccc2)o1 [IA-39]	≤ 10 nM

Results, then the molecule that gave them:

Ki	Compound
≤ 10 nM	COc1ccccc1-c1nnc(-c2nc(-c3ccc(C(=O)N(C)C)cc3)cnc2N)o1 [IA-242, 4-[5-amino-6-[5-(2-methoxyphenyl)-1,3,4-oxadiazol-2-yl]pyrazin-2-yl]-N,N-dimethyl-benzamide]
100 to 5000 nM	Nc1ncc(-c2ccccc2C(F)(F)F)nc1-c1nnc(-c2ccccc2)o1 [IA-174, 3-(5-phenyl-1,3,4-oxadiazol-2-yl)-5-[2(-trifluoromethyl)phenyl]pyrazin-2-amine]
100 to 5000 nM	CNCc1ccc(NC(=O)c2nc(-c3ccc(S(C)(=O)=O)cc3)cnc2N)cc1 [VII-10]
10 to 100 nM	Cc1ncccc1NC(=O)c1nc(-c2ccc(S(C)(=O)=O)cc2)cnc1N [VII-5]
≤ 10 nM	Nc1ncc(-c2ccc(S(=O)(=O)C3CCOC3)cc2)nc1-c1nnc(-c2ccccc2F)o1 (stereo not drawn) [IA-349, 3-[5-(2-fluorophenyl)-1,3,4-oxadiazol-2-yl]-5-(4-tetrahydrofuran-3-ylsulfonylphenyl)pyrazin-2-amine]
≤ 10 nM	Nc1ncc(-c2ccc(S(=O)(=O)N3CCC3)cc2)nc1-c1nnc(-c2ccccc2)o1 [IA-112, 5-[4-(azetidin-1-ylsulfonyl)phenyl]-3-(5-phenyl-1,3,4-oxadiazol-2-yl)pyrazin-2-amine]
≤ 10 nM	CNCc1ccc(-c2nnc(-c3nc(-c4ccc(S(=O)(=O)C(C)CCO)cc4)cnc3N)o2)cc1 (stereo not drawn) [IA-88, 3-[4-[5-amino-6-[5-[4-(methylaminomethyl)phenyl]-1,3,4-oxadiazol-2-yl]pyrazin-2-yl]phenyl]sulfonylbutan-1-ol]
100 to 5000 nM	CC(C)S(=O)(=O)c1ccc(-c2cnc(N)c(-c3nnc(CN)o3)n2)cc1 [IA-168, 3-[5-(aminomethyl)-1,3,4-oxadiazol-2-yl]-5-(4-isopropylsulfonylphenyl)pyrazin-2-amine]
10 to 100 nM	CN(C)C(=O)c1ccc(-c2cnc(N)c(-c3nnc(-c4ccccc4)o3)n2)c(-c2cnco2)c1 [IA-161, 4-[5-amino-6-(5-phenyl-1,3,4-oxadiazol-2-yl)pyrazin-2-yl]-N,N-dimethyl-3-oxazol-5-yl-benzamide]
≤ 10 nM	CC(C)S(=O)(=O)c1ccc(-c2cnc(N)c(-c3nnc(-c4cccc(C5CCCN5)c4)o3)n2)cc1 (stereo not drawn) [IA-84, 5-(4-isopropylsulfonylphenyl)-3-[5-(3-pyrrolidin-2-ylphenyl)-1,3,4-oxadiazol-2-yl]pyrazin-2-amine]
≤ 10 nM	CCNCc1ccc(-c2nnc(-c3nc(-c4ccc(S(=O)(=O)C(C)C)cc4)cnc3N)o2)cc1 [IA-122, 3-[5-[4-(ethylaminomethyl)phenyl]-1,3,4-oxadiazol-2-yl]-5-(4-isopropylsulfonylphenyl)pyrazin-2-amine]
100 to 5000 nM	Nc1ncc(-c2cccc(C(F)(F)F)c2)nc1-c1nnc(-c2ccccc2)o1 [IA-96, 3-(5-phenyl-1,3,4-oxadiazol-2-yl)-5-[3-(trifluoromethyl)phenyl]pyrazin-2-amine]
10 to 100 nM	CN(C)C(=O)c1ccc(-c2cnc(N)c(-c3nnc(-c4cccc(O)c4)o3)n2)cc1 [IA-85, 4-[5-amino-6-[5-(3-hydroxyphenyl)-1,3,4-oxadiazol-2-yl]pyrazin-2-yl]-N,N-dimethyl-benzamide]
10 to 100 nM	CC(C)S(=O)(=O)c1ccc(-c2cnc(N)c(-c3nnc(C(=O)N4CCCNCC4)o3)n2)cc1 [IA-79, [5-[3-amino-6-(4-isopropylsulfonylphenyl)pyrazin-2-yl]-1,3,4-oxadiazol-2-yl]-(1,4-diazepan-1-yl)methanone]
≤ 10 nM	CNCc1ccc(-c2nnc(-c3nc(-c4ccc(S(=O)(=O)C5CCOCC5)cc4)cnc3N)o2)c(F)c1 [IA-344, 3-[5-[2-fluoro-4-(methylaminomethyl)phenyl]-1,3,4-oxadiazol-2-yl]-5-(4-tetrahydropyran-4-ylsulfonylphenyl)pyrazin-2-amine]
≤ 10 nM	Cc1ccsc1-c1nnc(-c2nc(-c3ccc(C(=O)N(C)C)cc3)cnc2N)o1 [IA-167, 4-[5-amino-6-[5-(3-methyl-2-thienyl)-1,3,4-oxadiazol-2-yl]pyrazin-2-yl]-N,N-dimethyl-benzamide]
≤ 10 nM	CCc1cc(-c2cnc(N)c(-c3nnc(-c4ccc(CNC)cc4)o3)n2)ccc1S(=O)(=O)C(C)C [IA-326, 5-(3-ethyl-4-isopropylsulfonyl-phenyl)-3-[5-[4-(methylaminomethyl)phenyl]-1,3,4-oxadiazol-2-yl]pyrazin-2-amine]
≤ 10 nM	CC(C)S(=O)(=O)c1ccc(-c2cnc(N)c(-c3nnc(-c4ccc(CN[C@H](C)CO)cc4F)o3)n2)cc1 [IA-333, (R)-2-(4-(5-(3-amino-6-(4-(isopropylsulfonyl)phenyl)pyrazin-2-yl)-1,3,4-oxadiazol-2-yl)-3-fluorobenzylamino)propan-1-ol]
100 to 5000 nM	CC(C)S(=O)(=O)c1ccc(-c2cnc(N)c(-c3nnc(C(=O)N4CCC(N)C4)o3)n2)cc1 (stereo not drawn) [IA-133, [5-[3-amino-6-(4-isopropylsulfonylphenyl)pyrazin-2-yl]-1,3,4-oxadiazol-2-yl]-(3-aminopyrrolidin-1-yl)methanone]
≤ 10 nM	CNCc1ccc(-c2cc(-c3nc(-c4ccc(S(=O)(=O)C5CCOC5)cc4)cnc3N)on2)c(F)c1 (stereo not drawn) [IIA-16, 3-[3-[2-fluoro-4-(methylaminomethyl)phenyl]isoxazol-5-yl]-5-(4-tetrahydrofuran-3-ylsulfonylphenyl)pyrazin-2-amine]
100 to 5000 nM	CC(C)S(=O)(=O)c1ccc(-c2cnc(N)c(-c3nnc(C(=O)NCC4CCCNC4)o3)n2)cc1 (stereo not drawn) [IA-255, 5-[3-amino-6-(4-isopropylsulfonylphenyl)pyrazin-2-yl]-N-(3-piperidylmethyl)-1,3,4-oxadiazole-2-carboxamide]
100 to 5000 nM	CN(C)Cc1ccc(-c2cnc(N)c(-c3nnc(-c4ccc(CO)cc4)o3)n2)cc1 [IA-240, [4-[5-[3-amino-6-[4-(dimethylaminomethyl)phenyl]pyrazin-2-yl]-1,3,4-oxadiazol-2-yl]phenyl]methanol]
≤ 10 nM	CNCc1ccc(-c2nnc(-c3nc(-c4ccc(S(=O)(=O)C(C)C)cc4)cnc3N)o2)cc1Cl [IA-309, 3-[5-[3-chloro-4-(methylaminomethyl)phenyl]-1,3,4-oxadiazol-2-yl]-5-(4-isopropylsulfonylphenyl)pyrazin-2-amine]
